Drawing on PubChem BioAssay (NCI), this text covers TGI for six compounds.

Some test systems named below: SK-MEL-5 melanoma; SW-620 colon; CCRF-CEM leukemia; HCT-15 colon; ACHN renal; TK-10 renal; SNB-75 CNS; NCI-H23 lung; CAKI-1 renal; K-562 leukemia; COLO 205 colon; MALME-3M melanoma; MOLT-4 leukemia; UACC-257 melanoma; HCC-2998 colon; OVCAR-8 ovarian; OVCAR-4 ovarian; SK-MEL-2 melanoma; SK-MEL-28 melanoma; RPMI-8226 leukemia.
What all share (assay): NCI tumour cell line growth inhibition, 48 h

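Cells were grown in 96-well plates and exposed to each compound for 48 hours at five concentrations; endpoints were interpolated linearly between bracketing concentrations, or set to the highest concentration if not reached. TGI: concentration producing complete growth inhibition.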

For the compound `COC(=O)CN(C)P(=O)(N1CC1)N1CC1`, the TGI with SK-MEL-5 melanoma, with SW-620 colon, in the experiment on CCRF-CEM leukemia, with HCT-15 colon, in the experiment with ACHN renal and in the experiment with TK-10 renal was more than 100 µM in each case. Also, the TGI in the experiment on SNB-75 CNS, in the experiment on NCI-H23 lung, in the experiment with CAKI-1 renal, in the experiment on K-562 leukemia, with COLO 205 colon and with MALME-3M melanoma was more than 100 µM in each case. In addition, the TGI with MOLT-4 leukemia, in the experiment with UACC-257 melanoma, with HCC-2998 colon, with OVCAR-8 ovarian, in the experiment on OVCAR-4 ovarian and with SK-MEL-2 melanoma was more than 100 µM throughout. In addition, the TGI with SK-MEL-28 melanoma and with RPMI-8226 leukemia was more than 100 µM each time.
On to `COc1cc2c3c(c4cc(OC)c(OC)cc4c2cc1OC)C(=O)C1CCC(=O)N1C3` (stereo not given), for which the TGI was more than 100 µM in the experiment on SK-MEL-5 melanoma; more than 100 µM with SW-620 colon; 30.8 µM in the experiment with CCRF-CEM leukemia; more than 100 µM in the experiment on HCT-15 colon; 59.7 µM with ACHN renal; 54.5 µM in the experiment with TK-10 renal. For the same compound, the TGI in the experiment on SNB-75 CNS was 32.2 µM; in the experiment with NCI-H23 lung, more than 100 µM; in the experiment with CAKI-1 renal, 38.9 µM; in the experiment on K-562 leukemia, more than 100 µM; in the experiment on COLO 205 colon, more than 100 µM; in the experiment on MALME-3M melanoma, 83 µM. Moreover, the TGI in the experiment with MOLT-4 leukemia is 37.5 µM; in the experiment on UACC-257 melanoma it was more than 100 µM; with HCC-2998 colon, more than 100 µM; with OVCAR-8 ovarian, more than 100 µM; in the experiment with OVCAR-4 ovarian it was more than 100 µM; in the experiment with SK-MEL-2 melanoma, more than 100 µM. Further, the TGI with SK-MEL-28 melanoma and in the experiment on RPMI-8226 leukemia was more than 100 µM in each case.
Consider `Cc1cccc(C(C)C)c1NC(=O)CC1Sc2ccccc2NC1=O` (stereo not given), for which the TGI in the experiment with SK-MEL-5 melanoma, with SW-620 colon, with CCRF-CEM leukemia, in the experiment on HCT-15 colon, in the experiment on ACHN renal and in the experiment on TK-10 renal was more than 100 µM in each case. The TGI in the experiment with SNB-75 CNS is more than 100 µM; in the experiment on NCI-H23 lung it was more than 100 µM; with CAKI-1 renal, more than 100 µM; in the experiment on K-562 leukemia, more than 100 µM; in the experiment on COLO 205 colon, more than 100 µM; with MALME-3M melanoma it was 94.2 µM. In addition, the TGI with MOLT-4 leukemia, in the experiment with UACC-257 melanoma, in the experiment on HCC-2998 colon, with OVCAR-8 ovarian, with OVCAR-4 ovarian and with SK-MEL-2 melanoma was more than 100 µM in each case. Moreover, the TGI in the experiment on SK-MEL-28 melanoma and in the experiment with RPMI-8226 leukemia was more than 100 µM throughout.
As for `CC(=O)OC1(C#N)CC2OC1C1C2N=NN1C(=O)OC(C)(C)C` (stereo not given), the TGI with SK-MEL-5 melanoma is more than 100 µM; in the experiment on SW-620 colon it was more than 100 µM; in the experiment with CCRF-CEM leukemia it was more than 100 µM; with HCT-15 colon, 55.9 µM; in the experiment on ACHN renal it was more than 100 µM; in the experiment with TK-10 renal, more than 100 µM. For the same compound, the TGI in the experiment on SNB-75 CNS is more than 100 µM; in the experiment on NCI-H23 lung it was 77.7 µM; in the experiment on CAKI-1 renal, more than 100 µM; with K-562 leukemia, more than 100 µM; in the experiment with COLO 205 colon, more than 100 µM; with MALME-3M melanoma it was 48.3 µM. The TGI in the experiment on MOLT-4 leukemia is more than 100 µM; in the experiment with UACC-257 melanoma, more than 100 µM; with HCC-2998 colon, more than 100 µM; in the experiment on OVCAR-8 ovarian, more than 100 µM; in the experiment with OVCAR-4 ovarian, more than 100 µM; in the experiment with SK-MEL-2 melanoma it was 68.9 µM. For the same compound, the TGI with SK-MEL-28 melanoma is 81.9 µM; with RPMI-8226 leukemia, more than 100 µM.
Turning to `CCOC(=O)c1csc(NC(=O)CN2CCN(C)CC2)n1`, the TGI in the experiment with SK-MEL-5 melanoma, in the experiment with SW-620 colon, with CCRF-CEM leukemia, with HCT-15 colon, in the experiment on ACHN renal and with TK-10 renal was more than 100 µM in each case. In addition, the TGI with SNB-75 CNS, in the experiment with NCI-H23 lung, in the experiment with CAKI-1 renal, in the experiment with K-562 leukemia, with COLO 205 colon and in the experiment on MALME-3M melanoma was more than 100 µM throughout. The TGI with MOLT-4 leukemia, in the experiment with UACC-257 melanoma, in the experiment with HCC-2998 colon, in the experiment with OVCAR-8 ovarian, with OVCAR-4 ovarian and in the experiment with SK-MEL-2 melanoma was more than 100 µM in each case. Further, the TGI in the experiment on SK-MEL-28 melanoma and with RPMI-8226 leukemia was more than 100 µM throughout.
With `O=C(CC(=O)c1ccccc1)CC(O)(c1ccccc1)c1ccccc1`, the TGI in the experiment with SK-MEL-5 melanoma was 13.7 µM; in the experiment with SW-620 colon, 18.1 µM; with CCRF-CEM leukemia it was 26 µM; in the experiment with HCT-15 colon it was 23 µM; in the experiment on ACHN renal, 24.5 µM; with TK-10 renal, 42.1 µM. Besides, the TGI worked out at 27.5 µM in the experiment with SNB-75 CNS; 18.8 µM in the experiment on NCI-H23 lung; 13.4 µM with CAKI-1 renal; 33.4 µM in the experiment with K-562 leukemia; 24.6 µM in the experiment on COLO 205 colon; 25.4 µM with MALME-3M melanoma. The TGI was found to be 42.8 µM with MOLT-4 leukemia; 29.7 µM in the experiment with UACC-257 melanoma; 23.8 µM with HCC-2998 colon; 20.5 µM with OVCAR-8 ovarian; 17.9 µM in the experiment on OVCAR-4 ovarian; 22.2 µM in the experiment on SK-MEL-2 melanoma. In addition, the TGI with SK-MEL-28 melanoma was 31.9 µM; with RPMI-8226 leukemia it was more than 100 µM.
